Like-named read-outs stand apart in the source and are kept apart here.

A short description of the data set: Pharmacokinetics in rat plasma after oral administration of SF-CS and SP-CS extracts (HPLC-MS/MS). The class given is in vivo, Male Sprague-Dawley rats. Conditions: for Tmax / AUC(0-inf) / Cmax / AUC(0-t) / MRT last: male, Sprague-Dawley; for Tmax / AUC(0-inf) / Cmax / AUC(0-t) / MRT last / AUC(0–24h) / T1/2ka / T1/2α / Shape of plasma concentration-time profile: rat plasma; for AUC(0-t): read-out: AUC0–24h; for MRT last: read-out: MRT0–24h; for Shape of plasma concentration-time profile: oral SF-CS and SP-CS extracts. The procedure: All components were measured on an Agilent 1200 HPLC system (Agilent Corporation, Santa Clara, CA, USA) and API 3200 triple quadrupole mass spectrometer (Concord, ON, Canada) in negative ion mode. Acetonitrile (A) and 0.1% formic acid-water (B) were used to separate the analytes on an Agilent Eclipse plus C18 column (4.6 mm × 100 mm, 1.8 μm) with a flow rate of 0.5 mL·min^−1. […] The equilibration time (10 min) of the sequence was added before the next injection. The column temperature was 30 °C. The optimized main parameters, namely curtain gas, collision gas, ion Spray voltage, and temperature, were set at 30 psi, 8 psi, −4000 V, and 600 °C, respectively.
The plasma sample (100 μL), IS (10 μL) and formic acid (10 μL) were mixed and vortexed for 1 min. Then, 1 mL of ethyl acetate was spiked into the mixed solution and centrifuged for 10 min at 14,000 rpm. The supernatant was transferred and evaporated with nitrogen gas. These residues were re-dissolved with 100 μL methanol. The final solutions were vortexed for 2 min and centrifuged for 10 min. The supernatant was injected into the HPLC-MS/MS and analyzed.
The pharmacokinetic study was conducted in accordance with the Guidelines for the Care and Use of Laboratory Animals by USA National Institutes of Health and approved by the Animal Ethics Committee of Tianjin University of Traditional Chinese Medicine (the permit number: TCM-LAEC2019023, Tianjin, China). Male Sprague-Dawley rats (200–240 g) were fed in the animal laboratory of Tianjin University of Traditional Chinese Medicine under the standard conditions. These rats were fed and given water for 1 week before experimentation. […] In order to investigate the influence of processing on the metabolic process of active ingredients in vivo, the same amount of raw CS was processed and administrated. Depending on the clinical dosage that was applied to the human body, the dosage of SF-CS extracts was 1.9 g kg^−1 (an equivalent dosage of 12.75 g kg^−1 raw CS) for oral administration, while extraction of SP-CS was 2.2 g kg^−1 (an equivalent dosage of 12.50 g kg^−1 raw CS). In order to investigate the influence of salt on the metabolic process of active ingredients in vivo, the dosage of SF-CS extracts was 1.9 g kg^−1 (an equivalent dosage of 12.75 g kg^−1 raw CS) and SF-CS extracts with salt ( 0.26 g kg^−1 ) were used to perform the pharmacokinetic study. […] The collected plasma was centrifuged for 10 min at 6000 rpm and stored at −20 °C before analysis.
All of the pharmacokinetic parameters were estimated with the DAS1.0 system (Medical College of Wannan, China). The maximum concentration of oral administration of CS (Cmax) and the time to reach Cmax (Tmax) were achieved from the concentration–time profile. All values were shown as mean ± standard deviation. Independent t-test was used to compare the pharmacokinetic parameters of the two processed CS.

The mark [1] stands for this setting: oral SF-CS extract (A) 1.9 g kg^-1, n = 10.
The mark [2] stands for this setting: oral SF-CS extract (A) 1.9 g kg^-1, n = 10, mean ± SD.
[3] abbreviates: oral SP-CS extract (B) 2.2 g kg^-1, n = 10.
The mark [4] stands for this setting: oral SP-CS extract (B) 2.2 g kg^-1, n = 10, mean ± SD.

Consider `O=c1c(O[C@@H]2O[C@H](CO)[C@@H](O)[C@H](O)[C@H]2O)c(-c2ccc(O)cc2)oc2cc(O)cc(O)c12` [Astragalin, astragalin], for which, under setting [1], the Tmax worked out at 0.99 h. For the same compound, under setting [2], the AUC(0-inf) is 11.2 ± 10.8 ng·h/mL, the concentration peaked (Cmax) at 0.65 ± 0.39 ng/mL, the AUC(0-t) was found to be 1.27 ± 0.76 ng·h/mL and the MRT last amounted to 2.3 ± 0.98 h. Under setting [2], the T1/2ka is on record as 2.27 ± 5.13 h and the T1/2α stood at 24.6 ± 33.2 h. The Tmax under setting [3] was 0.17 h. For the same compound, under setting [4], the AUC(0-inf) stood at 2.33 ± 0.72 ng·h/mL, the Cmax was determined as 1.43 ± 0.21 ng/mL, the AUC(0-t) worked out at 1.31 ± 0.27 ng·h/mL and the MRT last is 2.13 ± 0.2 h. For the same compound, under setting [4], the T1/2ka is recorded as 0.04 ± 0.00 h and the T1/2α came to 0.10 ± 0.04 h. This compound also displayed an AUC(0–24h) (oral SF-CS extract) of 1.27 ± 0.76 ng·h/mL. Also, the AUC(0–24h) (oral SP-CS extract) worked out at 1.31 ± 0.27 ng·h/mL.
Consider `O=C(/C=C/c1ccc(O)c(O)c1)O[C@@H]1C[C@](O)(C(=O)O)C[C@@H](O)[C@H]1O` [Chlorogenic acid, chlorogenic acid], for which the “Shape of plasma concentration-time profile” value is on record as “double-peak phenomenon”. Further, the Tmax under setting [1] turned out to be 3.84 h. Further, under setting [2], the AUC(0-inf) is 1670 ± 931 ng·h/mL, the Cmax is 257 ± 53 ng/mL, the AUC(0-t) amounted to 1660 ± 931 ng·h/mL and the MRT last came to 4.81 ± 0.35 h. Under setting [2], the T1/2ka is given as 0.63 ± 0.87 h and the T1/2α worked out at 6.53 ± 5.20 h. Also, under setting [3], the Tmax was found to be 0.28 h. Moreover, under setting [4], the AUC(0-inf) was determined as 438 ± 289 ng·h/mL, the Cmax amounted to 175 ± 168 ng/mL, the AUC(0-t) amounted to 417 ± 281 ng·h/mL and the MRT last worked out at 5.06 ± 1.1 h. For the same compound, under setting [4], the T1/2ka amounted to 0.02 ± 0.01 h and the T1/2α is recorded as 0.84 ± 0.42 h.
Regarding `O=c1c(O[C@@H]2O[C@H](CO)[C@H](O)[C@H](O)[C@H]2O)c(-c2ccc(O)c(O)c2)oc2cc(O)cc(O)c12` [Hyperin, hyperin], the Tmax under setting [1] stood at 0.74 h. Besides, under setting [2], the AUC(0-inf) came to 331 ± 80 ng·h/mL, the concentration peaked (Cmax) at 21.3 ± 6.98 ng/mL, the AUC(0-t) worked out at 172 ± 38 ng·h/mL and the MRT last turned out to be 9.19 ± 1.5 h. Under setting [2], this compound had a T1/2ka of 2.15 ± 4.21 h and a T1/2α of 11.7 ± 6.73 h. Besides, the Tmax under setting [3] was found to be 0.11 h. Moreover, under setting [4], the AUC(0-inf) was 185 ± 153 ng·h/mL, the highest level (Cmax) was 36.6 ± 21.9 ng/mL, the AUC(0-t) came to 63 ± 27.8 ng·h/mL and the MRT last came out at 8.66 ± 2.37 h. Under setting [4], this compound registered a T1/2ka of 0.01 ± 0.01 h and a T1/2α of 0.46 ± 0.30 h.
For `O=c1c(O[C@@H]2O[C@H](CO)[C@@H](O)[C@H](O)[C@H]2O)c(-c2ccc(O)c(O)c2)oc2cc(O)cc(O)c12` [Isoquercitrin, isoquercitrin], the “Detection in rat plasma” value (after oral administration of the two processed products of CS, LLOQ 2 ng·mL^−1) was “could not be tested”.
For `O=C(/C=C/c1ccc(O)c(O)c1)O[C@@H]1C[C@@](O)(C(=O)O)C[C@@H](O)[C@@H]1O` [Neochlorogenic acid, neochlorogenic acid], the “Shape of plasma concentration-time profile” value is on record as “double-peak phenomenon”. Moreover, under setting [1], the Tmax was 3.75 h. Besides, under setting [2], the AUC(0-inf) came to 567 ± 376 ng·h/mL, the highest level (Cmax) was 88.6 ± 39.6 ng/mL, the AUC(0-t) came to 548 ± 384 ng·h/mL and the MRT last came to 5.57 ± 1.74 h. Under setting [2], this compound registered a T1/2ka of 1.12 ± 1.66 h and a T1/2α of 7.72 ± 7.50 h. The Tmax under setting [3] was found to be 0.26 h. Moreover, under setting [4], the AUC(0-inf) turned out to be 178 ± 22 ng·h/mL, the Cmax amounted to 31.8 ± 17.3 ng/mL, the AUC(0-t) turned out to be 129 ± 38 ng·h/mL and the MRT last stood at 8.18 ± 1.66 h. Further, under setting [4], the T1/2ka is 0.02 ± 0.02 h and the T1/2α stood at 3.35 ± 4.31 h.
As to `O=C(O)/C=C/c1ccc(O)cc1` [P-coumaric acid, p-coumaric acid], the Tmax under setting [1] came to 0.54 h. Further, under setting [2], the AUC(0-inf) amounted to 3290 ± 591 ng·h/mL, the concentration peaked (Cmax) at 1210 ± 310 ng/mL, the AUC(0-t) stood at 3200 ± 635 ng·h/mL and the MRT last stood at 4.24 ± 1.45 h. Under setting [2], this compound registered a T1/2ka of 0.15 ± 0.12 h and a T1/2α of 1.32 ± 0.86 h. In addition, under setting [3], the Tmax was 0.33 h. Under setting [4], the AUC(0-inf) came to 2800 ± 951 ng·h/mL, the highest level (Cmax) was 805 ± 307 ng/mL, the AUC(0-t) stood at 2570 ± 792 ng·h/mL and the MRT last stood at 5.68 ± 1.69 h. Under setting [4], the T1/2ka was 0.05 ± 0.04 h and the T1/2α was determined as 1.40 ± 0.95 h. Further, the AUC(0–24h) (oral SF-CS extract) worked out at 3200 ± 635 ng·h/mL. Moreover, for the setting “oral SP-CS extract”, the AUC(0–24h) is 2570 ± 792 ng·h/mL.

In general, Tmax refers to the time at which the peak concentration occurs. What is called AUC(0-inf) is total exposure, with the tail of the curve extrapolated. What is called Cmax is the maximum level reached in the sampled fluid or tissue.

The record behind these values is article PMC6651454, “An Established HPLC-MS/MS Method for Evaluation of the Influence of Salt Processing on Pharmacokinetics of Six Compounds in Cuscutae Semen” (Molecules, 2019).
